In patent publication US20240425490A1, “SULFAMIDE RIBONUCLEOTIDE REDUCTASE (RNR) INHIBITORS AND USES THEREOF” (Boundless Bio, Inc., priority 2021, published 2024):

Each compound was assayed against T1, RNR (RNR1:RNR2 1:1) (Homo sapiens, UniProt P23921) (assay: RNR enzyme activity, rapid-fire mass spectrometry (RFMS) assay). Conditions: RNR 50 nM, CDP 5 μM, ATP 1 mM, 37° C., 45 min, compounds screened up to 50 μM, read-out: RF/MS IC50.
T1 sequence (P23921 1-792): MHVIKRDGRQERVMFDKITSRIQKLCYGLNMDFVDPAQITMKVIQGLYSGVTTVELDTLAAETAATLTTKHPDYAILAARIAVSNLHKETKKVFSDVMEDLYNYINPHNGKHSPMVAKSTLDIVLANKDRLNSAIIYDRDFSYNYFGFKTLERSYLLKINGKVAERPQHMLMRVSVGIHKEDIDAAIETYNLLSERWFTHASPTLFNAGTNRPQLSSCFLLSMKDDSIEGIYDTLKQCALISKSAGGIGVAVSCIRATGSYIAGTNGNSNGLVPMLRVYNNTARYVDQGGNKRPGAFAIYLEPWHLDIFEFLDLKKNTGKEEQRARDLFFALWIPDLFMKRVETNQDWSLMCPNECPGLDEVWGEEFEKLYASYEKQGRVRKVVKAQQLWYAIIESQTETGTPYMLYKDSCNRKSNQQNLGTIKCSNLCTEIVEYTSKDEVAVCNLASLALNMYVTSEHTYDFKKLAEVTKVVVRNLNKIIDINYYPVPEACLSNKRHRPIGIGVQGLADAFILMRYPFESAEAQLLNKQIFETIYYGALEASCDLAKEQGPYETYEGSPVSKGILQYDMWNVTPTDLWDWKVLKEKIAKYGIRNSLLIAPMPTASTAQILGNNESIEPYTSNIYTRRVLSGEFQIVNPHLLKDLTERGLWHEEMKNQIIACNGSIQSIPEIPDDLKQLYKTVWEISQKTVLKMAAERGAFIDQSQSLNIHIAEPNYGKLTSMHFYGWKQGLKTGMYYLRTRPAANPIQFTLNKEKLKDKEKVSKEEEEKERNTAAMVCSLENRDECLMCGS
Assay type: biochemical
Experimental: A rapid-fire mass spectrometry (RFMS) assay was used to assess RNR enzyme activity using a 384 well plate and a robotic platform.
The plate layout included two validated reference compounds (Triapine (3-AP) and Hydroxyurea (HU)): • A dose response in duplicate; top concentration: 5 μM (3-AP) and 250 μM (HU), semi-log dilutions. • Spike wells in triplicate randomly spotted at four concentrations: • 250 μM, 100 μM, 30 μM and 2 μM for HU • 5 μM, 2 μM, 0.6 μM and 0.04 μM for 3-AP
First, the multidrop pipes were saturated for 30 minutes with enzymatic solution. Then 30 μL of Stop solution was distributed in column 24. Next, 15 μL of enzyme was distributed in column 1 to 24. Next, a pre-incubation step of 15 minutes at room temperature occurred, followed by distribution of 15 μL of substrate solution (column 1 to 24). Next, the plate was incubated for 45 minutes at 37° C. 30 μL of Stop solution was distributed to columns 1 to 23.
The final parameters for the enzyme reactions were: • Incubation: 37° C., 45 min • [CDP]: 5 μM; [ATP]: 1 mM; [NADPH]: No • [RNR] final: 50 nM with 1:1 (RNR1:RNR2) ratio • Final volume: 30 μL • Stop solution: 6% HCOOH containing 2 μM of 15
`C#CC1CCN(S(=O)(=O)N[C@H](c2n[nH]c(=O)o2)[C@@H](C)c2c(F)ccc(C)c2C)CC1` [Example 47, 4-ethynyl-N-((1S,2S)-2-(6-fluoro-2,3-dimethylphenyl)-1-(5-oxo-4,5-dihydro-1,3,4-oxadiazol-2-yl)propyl)piperidine-1-sulfonamide] showed an IC50 of 10 to 100 µM. `C#CC1CCN(S(=O)(=O)N[C@H](c2n[nH]c(=O)o2)[C@H](C)c2c(F)ccc(C)c2C)CC1` [Example 48, 4-ethynyl-N-((1S,2R)-2-(6-fluoro-2,3-dimethylphenyl)-1-(5-oxo-4,5-dihydro-1,3,4-oxadiazol-2-yl)propyl)piperidine-1-sulfonamide] gave an IC50 of 1 to 10 µM. In the case of `Cc1ccc(F)c(C(C)[C@H](NS(=O)(=O)N2CCC(C3CC3)CC2)c2n[nH]c(=O)o2)c1C` (stereo partly drawn) [Example 49, 4-cyclopropyl-N-((1S)-2-(6-fluoro-2,3-dimethylphenyl)-1-(5-oxo-4,5-dihydro-1,3,4-oxadiazol-2-yl)propyl)piperidine-1-sulfonamide], the IC50 is reported as 1 to 10 µM. For `Cc1ccc(F)c([C@@H](C)[C@H](NS(=O)(=O)N2CCC(N3CCCC3)CC2)c2n[nH]c(=O)o2)c1C` [Example 50, N-((1S,2R)-2-(6-fluoro-2,3-dimethylphenyl)-1-(5-oxo-4,5-dihydro-1,3,4-oxadiazol-2-yl)propyl)-4-(pyrrolidin-1-yl)piperidine-1-sulfonamide], the IC50 was 10 to 100 µM. With `Cc1ccc(F)c([C@@H](C)[C@H](NS(=O)(=O)N2CCC(S(C)(=O)=O)CC2)c2n[nH]c(=O)o2)c1C` [Example 51, N-((1S,2R)-2-(6-fluoro-2,3-dimethylphenyl)-1-(5-oxo-4,5-dihydro-1,3,4-oxadiazol-2-yl)propyl)-4-(methylsulfonyl)piperidine-1-sulfonamide] the IC50 was 10 to 100 µM. For `Cc1ccc(F)c([C@@H](C)[C@H](NS(=O)(=O)N2CCC(c3nncn3C)CC2)c2n[nH]c(=O)o2)c1C` [Example 52, N-((1S,2R)-2-(6-fluoro-2,3-dimethylphenyl)-1-(5-oxo-4,5-dihydro-1,3,4-oxadiazol-2-yl)propyl)-4-(4-methyl-4H-1,2,4-triazol-3-yl)piperidine-1-sulfonamide], the IC50 was 10 to 100 µM. For `Cc1ccc(F)c([C@H](C)[C@H](NS(=O)(=O)N2CCC(c3nncn3C)CC2)c2n[nH]c(=O)o2)c1C` [Example 53, N-((1S,2S)-2-(6-fluoro-2,3-dimethylphenyl)-1-(5-oxo-4,5-dihydro-1,3,4-oxadiazol-2-yl)propyl)-4-(4-methyl-4H-1,2,4-triazol-3-yl)piperidine-1-sulfonamide], the IC50 was 10 to 100 µM. Work on `Cc1ccc(F)c([C@H](C)[C@H](NS(=O)(=O)N2CCC(Oc3ccccc3)CC2)c2n[nH]c(=O)o2)c1C` [Example 54, N-((1S,2S)-2-(6-fluoro-2,3-dimethylphenyl)-1-(5-oxo-4,5-dihydro-1,3,4-oxadiazol-2-yl)propyl)-4-phenoxypiperidine-1-sulfonamide] yielded an IC50 of 10 to 100 µM. In the case of `Cc1ccc(F)c([C@@H](C)[C@H](NS(=O)(=O)N2CCC(Oc3ccccc3)CC2)c2n[nH]c(=O)o2)c1C` [Example 55, N-((1S,2R)-2-(6-fluoro-2,3-dimethylphenyl)-1-(5-oxo-4,5-dihydro-1,3,4-oxadiazol-2-yl)propyl)-4-phenoxypiperidine-1-sulfonamide], the IC50 is reported as 0.1 to 1 µM. Work on `CNC(=O)C1CCN(S(=O)(=O)N[C@H](c2n[nH]c(=O)o2)[C@@H](C)c2c(F)ccc(C)c2C)CC1` [Example 56, 1-(N-((1S,2S)-2-(6-fluoro-2,3-dimethylphenyl)-1-(5-oxo-4,5-dihydro-1,3,4-oxadiazol-2-yl)-propyl)sulfamoyl)-N-methylpiperidine-4-carboxamide] yielded an IC50 of 10 to 100 µM. With `CNC(=O)C1CCN(S(=O)(=O)N[C@H](c2n[nH]c(=O)o2)[C@H](C)c2c(F)ccc(C)c2C)CC1` [Example 57, 1-(N-((1S,2R)-2-(6-fluoro-2,3-dimethylphenyl)-1-(5-oxo-4,5-dihydro-1,3,4-oxadiazol-2-yl)propyl)sulfamoyl)-N-methylpiperidine-4-carboxamide] the IC50 was 1 to 10 µM. `Cc1ccc(F)c([C@@H](C)[C@H](NS(=O)(=O)N2CCC3(CCNC3=O)CC2)c2n[nH]c(=O)o2)c1C` [Example 59, N-((1S,2R)-2-(6-fluoro-2,3-dimethylphenyl)-1-(5-oxo-4,5-dihydro-1,3,4-oxadiazol-2-yl)propyl)-1-oxo-2,8-diazaspiro[4.5]decane-8-sulfonamide] gave an IC50 of 10 to 100 µM. Work on `Cc1ccc(F)c(C(C)[C@H](NS(=O)(=O)N2CCC(C3NC(=O)NC3=O)CC2)c2n[nH]c(=O)o2)c1C` (stereo partly drawn) [Example 60, 4-(2,5-dioxoimidazolidin-4-yl)-N-((1S)-2-(6-fluoro-2,3-dimethylphenyl)-1-(5-oxo-4,5-dihydro-1,3,4-oxadiazol-2-yl)propyl)piperidine-1-sulfonamide] yielded an IC50 of 0.1 to 1 µM. `Cc1ccc(F)c([C@H](C)[C@H](NS(=O)(=O)N2CCC3(CCO3)CC2)c2n[nH]c(=O)o2)c1C` [Example 61, N-((1S,2S)-2-(6-fluoro-2,3-dimethylphenyl)-1-(5-oxo-4,5-dihydro-1,3,4-oxadiazol-2-yl)propyl)-1-oxa-7-azaspiro[3.5]nonane-7-sulfonamide] showed an IC50 of 10 to 100 µM. `Cc1ccc(F)c(C(C)[C@H](NS(=O)(=O)N2CCC(CN3CCCCC3)CC2)c2n[nH]c(=O)o2)c1C` (stereo partly drawn) [Example 62, N-((1S)-2-(6-fluoro-2,3-dimethylphenyl)-1-(5-oxo-4,5-dihydro-1,3,4-oxadiazol-2-yl)propyl)-4-(piperidin-1-ylmethyl)piperidine-1-sulfonamide] was tested, and the IC50 was 10 to 100 µM. With `CC(=O)N(C)C1CCN(S(=O)(=O)N[C@H](c2n[nH]c(=O)o2)C(C)c2c(F)ccc(C)c2C)CC1` (stereo partly drawn) [Example 63, N-(1-(N-((1S)-2-(6-fluoro-2,3-dimethylphenyl)-1-(5-oxo-4,5-dihydro-1,3,4-oxadiazol-2-yl)propyl)sulfamoyl)piperidin-4-yl)-N-methylacetamide] the IC50 was 1 to 10 µM. `Cc1ccc(F)c(C(C)[C@H](NS(=O)(=O)N2CCC(C(=O)N(C)C)CC2)c2n[nH]c(=O)o2)c1C` (stereo partly drawn) [Example 64, 1-(N-((1S)-2-(6-fluoro-2,3-dimethylphenyl)-1-(5-oxo-4,5-dihydro-1,3,4-oxadiazol-2-yl)propyl)sulfamoyl)-N,N-dimethylpiperidine-4-carboxamide] was tested, and the IC50 was 1 to 10 µM. `Cc1ccc(F)c(C(C)[C@H](NS(=O)(=O)N2CCC(CN3CCCC3=O)CC2)c2n[nH]c(=O)o2)c1C` (stereo partly drawn) [Example 65, N-((1S)-2-(6-fluoro-2,3-dimethylphenyl)-1-(5-oxo-4,5-dihydro-1,3,4-oxadiazol-2-yl)propyl)-4-((2-oxopyrrolidin-1-yl)methyl)piperidine-1-sulfonamide] showed an IC50 of 0.1 to 1 µM. Work on `CNC(=O)CC1CCN(S(=O)(=O)N[C@H](c2n[nH]c(=O)o2)C(C)c2c(F)ccc(C)c2C)CC1` (stereo partly drawn) [Example 66, 2-(1-(N-((1S)-2-(6-fluoro-2,3-dimethylphenyl)-1-(5-oxo-4,5-dihydro-1,3,4-oxadiazol-2-yl)propyl)sulfamoyl)piperidin-4-yl)-N-methylacetamide] yielded an IC50 of 10 to 100 µM. With `Cc1ccc(F)c(C(C)[C@H](NS(=O)(=O)N2CCC3(CC2)COC(=O)O3)c2n[nH]c(=O)o2)c1C` (stereo partly drawn) [Example 67, N-((1S)-2-(6-fluoro-2,3-dimethylphenyl)-1-(5-oxo-4,5-dihydro-1,3,4-oxadiazol-2-yl)propyl)-2-oxo-1,3-dioxa-8-azaspiro[4.5]decane-8-sulfonamide] the IC50 was 10 to 100 µM. In the case of `Cc1ccc(F)c([C@@H](C)[C@H](NS(=O)(=O)N2CCC(c3c[nH]c4ccccc34)CC2)c2n[nH]c(=O)o2)c1C` [Example 68, N-((1S,2R)-2-(6-fluoro-2,3-dimethylphenyl)-1-(5-oxo-4,5-dihydro-1,3,4-oxadiazol-2-yl)propyl)-4-(1H-indol-3-yl)piperidine-1-sulfonamide], the IC50 is reported as 1 to 10 µM. `Cc1ccc(F)c([C@H](C)[C@H](NS(=O)(=O)N2CCC(c3c[nH]c4ccccc34)CC2)c2n[nH]c(=O)o2)c1C` [Example 69, N-((1S,2S)-2-(6-fluoro-2,3-dimethylphenyl)-1-(5-oxo-4,5-dihydro-1,3,4-oxadiazol-2-yl)propyl)-4-(1H-indol-3-yl)piperidine-1-sulfonamide] was tested, and the IC50 was 10 to 100 µM.
